# Test results: patent US20050070527A1, “Quinoxaline compounds” (priority 2003, published 2005)
# Read-outs that look alike come from different tables or passages of the source.
# Assays:
# [1] = target: T1, human histamine H4 receptor (Homo sapiens, UniProt Q9H3N8); experiment: Binding assay on recombinant human histamine H4 receptor (3H-histamine displacement)
# T1 construct: expressed in transfected cells; host or cells: SK-N-MC cells or COS7 cells, transiently transfected; membrane preparation
# T1 sequence (Q9H3N8 whole entry): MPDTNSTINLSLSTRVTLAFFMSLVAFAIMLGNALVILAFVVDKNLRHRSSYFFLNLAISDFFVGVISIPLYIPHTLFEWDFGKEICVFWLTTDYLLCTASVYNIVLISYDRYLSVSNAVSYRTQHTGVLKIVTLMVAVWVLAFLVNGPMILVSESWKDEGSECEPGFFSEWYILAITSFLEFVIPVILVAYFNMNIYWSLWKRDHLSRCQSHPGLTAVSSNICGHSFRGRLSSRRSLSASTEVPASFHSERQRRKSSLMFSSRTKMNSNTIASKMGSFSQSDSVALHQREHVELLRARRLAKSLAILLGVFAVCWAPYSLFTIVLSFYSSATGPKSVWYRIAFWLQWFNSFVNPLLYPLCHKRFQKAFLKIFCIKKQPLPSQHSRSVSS
# Protocol: Binding Assay on Recombinant Human Histamine H4 Receptor
# SK-N-MC cells or COS7 cells were transiently transfected with pH4R and grown in 150 cm^2 tissue culture dishes. Cells were washed with saline solution, scraped with a cell scraper and collected by centrifugation (1000 rpm, 5 min). Cell membranes were prepared by homogenization of the cell pellet in 20 mM Tris-HCl with a polytron tissue homogenizer for 10 s at high speed. Homogenate was centrifuged at 1000 rpm for 5 min at 4° C. The supernatant was then collected and centrifuged at 20,000× g for 25 min at 4° C. The final pellet was resuspended in 50 mM Tris-HCl. Cell membranes were incubated with ^3H-histamine (5-70 nM) in the presence or absence of excess histamine (10000 nM). Incubation occurred at room temperature for 45 min. Membranes were harvested by rapid filtration over Whatman GF/C filters and washed 4 times with ice-cold 50 mM Tris HCl. Filters were then dried, mixed with scintillant and counted for radioactivity. SK-N-MC or COS7 cells expressing human histamine H4 receptor were used to measure the affinity of binding of other compounds and their ability to displace ^3H-ligand binding by incubating the above-described reaction in the presence of various concentrations of inhibitor or compound to be tested.
# human eosinophils [2] = settings: cited from earlier work
# human eosinophils [3] = experiment: Inhibition of eosinophil shape change (gated autofluorescence forward scatter assay); settings: for effect on histamine-induced shape change: antagonist, human eosinophils; for Fold Change (eosinophil shape change): 10 μM antagonist
# Mast cells = experiment: Mast cell chemotaxis assay (histamine-induced, transwell); type: cell-based; settings: 10 μM histamine, 3 h at 37° C.
# Protocol: Mast Cell Chemotaxis Assay
# In addition, it is known that mast cell numbers increase in a number of inflammatory conditions. Some of this is due to chemotaxis of mast cells to the sites of inflammation. This chemotaxis to specific agents can be mimicked in vitro. Transwells (Costar, Cambridge, Mass.) of a pore size 8 μm were coated with 100 μL of 100 ng/mL human fibronectin (Sigma) for 2 h at room temperature. After removal of the fibronectin, 600 μL of RPMI with 5% BSA, in the presence of 10 μM histamine, was added to the bottom chamber. To test the various histamine receptor (HR) antagonists, 10 μM and/or 1 μM solutions of the test compounds were added to the top and bottom chambers. Mast cells (2×10^5/well) were added to the top chamber. The plates were incubated for 3 h at 37° C. Transwells were removed and the cells in the bottom chamber were counted for sixty seconds using a flow cytometer.
# [4] = Table 1, competition with 3H-histamine, Cheng-Prusoff, KD 5 nM, ligand 5 nM, read-out: Ki
molecule,measurement,setting,value
"CC1CN(c2nc3ccccc3[nH]c2=O)CCN1 (stereo not drawn) [Example 6, 3-(3-Methyl-piperazin-1-yl)-1H-quinoxalin-2-one]",Ki,[1]; [4],681 nM
"CN1CCN(c2nc3cc(F)ccc3[nH]c2=O)CC1 [Example 21, 6-Fluoro-3-(4-methyl-piperazin-1-yl)-1H-quinoxalin-2-one]",Ki,[1]; read-out: Ki,39 nM
S=C(NC1CCCCC1)N1CCC(c2cnc[nH]2)CC1 [thioperamide],blockade of calcium mobilization responses,human eosinophils [2]; responses to histamine and R-α-methylhistamine,blocked
"CN1CCCN(c2nc3cc(Cl)c(Cl)cc3[nH]c2=O)CC1 [Example 16, 6,7-Dichloro-3-(4-methyl-[1,4]diazepan-1-yl)-1H-quinoxalin-2-one]",Ki,[1]; [4],1610 nM
"CN1CCN(c2nc3ccc(C(F)(F)F)cc3[nH]c2=O)CC1 [Example 13, 3-(4-Methyl-piperazin-1-yl)-7-trifluoromethyl-1H-quinoxalin-2-one]",Ki,[1]; [4],19 nM
CN(C)CCOC(c1ccccc1)c1ccccc1 [diphenhydramine],effect on histamine-induced shape change,human eosinophils [3],did not alter
same,Fold Change (eosinophil shape change),human eosinophils [3]; histamine 0 μM,1.00
same,Fold Change (eosinophil shape change),human eosinophils [3]; histamine 0.01 μM,1.03
same,Fold Change (eosinophil shape change),human eosinophils [3]; histamine 0.1 μM,1.18
same,Fold Change (eosinophil shape change),human eosinophils [3]; histamine 1 μM,1.50
same,Fold Change (eosinophil shape change),human eosinophils [3]; histamine 10 μM,1.63
"O=c1[nH]c2c(F)c(F)ccc2nc1N1CCNCC1 [Example 4, 7,8-Difluoro-3-piperazin-1-yl-1H-quinoxalin-2-one]",Ki,[1]; [4],430 nM
"Cc1cccc2nc(N3CCNCC3)c(=O)[nH]c12 [Example 2, 8-Methyl-3-piperazin-1-yl-1H-quinoxalin-2-one]",Ki,[1]; read-out: Ki,16 nM
same,% Inh,Mast cells; HR antagonist 1 μM,50%
3-(3-Methyl-piperazin-1-yl)-6-trifluoromethyl-1H-quinoxalin-2-one; and 3-(3-Methyl-piperazin-1-yl)-7-trifluoromethyl-1H-qui noxalin-2-one [Example 28],Ki,[1]; [4],743 nM
C[C@@H](N)Cc1c[nH]cn1 [R-α-methylhistamine],activation of calcium mobilization,human eosinophils [2],activate calcium mobilization
same,potency relative to histamine in calcium mobilization,human eosinophils [2],significantly less potent than histamine
7-Chloro-3-piperazin-1-yl-1H-quinoxalin-2-one; and 6-Chloro-3-piperazin-1-yl-1H-quinoxalin-2-one [Example 26],Ki,[1]; read-out: Ki,152 nM
"Cc1cccc2nc(N3CCNC(C)C3)c(=O)[nH]c12 (stereo not drawn) [Example 5, 8-Methyl-3-(3-methyl-piperazin-1-yl)-1H-quinoxalin-2-one]",Ki,[1]; read-out: Ki,40 nM
6-Chloro-3-(3-methyl-piperazin-1-yl)-1H-quinoxalin-2-one; and 7-Chloro-3-(3-methyl-piperazin-1-yl)-1H-quinoxalin-2-one [Example 27],Ki,[1]; read-out: Ki,467 nM
CNC(=C[N+](=O)[O-])NCCSCc1ccc(CN(C)C)o1 [ranatidine],effect on histamine-induced shape change,human eosinophils [3],did not alter
same,Fold Change (eosinophil shape change),human eosinophils [3]; histamine 0 μM,1.00
same,Fold Change (eosinophil shape change),human eosinophils [3]; histamine 0.01 μM,1.04
same,Fold Change (eosinophil shape change),human eosinophils [3]; histamine 0.1 μM,1.21
same,Fold Change (eosinophil shape change),human eosinophils [3]; histamine 1 μM,1.49
same,Fold Change (eosinophil shape change),human eosinophils [3]; histamine 10 μM,1.64
"Cc1cccc2nc(N3CCN(CCO)CC3)c(=O)[nH]c12 [Example 7, 3-[4-(2-Hydroxy-ethyl)-piperazin-1-yl]-8-methyl-1H-quinoxalin-2-one]",Ki,[1]; [4],852 nM
NCCc1c[nH]cn1 [histamine],shape change in eosinophils (agonist effect),"human eosinophils [3]; histamine alone, 0.01-10 μM",induces a dose-dependent shape change
same,activation of calcium mobilization,human eosinophils [2],activate calcium mobilization
"Cc1cccc2nc(N3CCN(C)CC3)c(=O)[nH]c12 [Example 1, 8-Methyl-3-(4-methyl-piperazin-1-yl)-1H-quinoxalin-2-one]",Ki,[1]; read-out: Ki,6 nM
same,% Inh,Mast cells; HR antagonist 1 μM,76%
7-Chloro-6-methyl-3-(4-methyl-piperazin-1-yl)-1H-quinoxalin-2-one; and 6-Chloro-7-methyl-3-(4-methyl-piperazin-1-yl)-1H-quinoxalin-2-one [Example 18],Ki,[1]; [4],112 nM
"Cc1cc2[nH]c(=O)c(N3CCN(C)CC3)nc2cc1Cl [Example 20, 6-Chloro-7-methyl-3-(4-methyl-piperazin-1-yl)-1H-quinoxalin-2-one]",Ki,[1]; [4],83 nM
"CN1CCN(c2nc3cc(Cl)c(Cl)cc3[nH]c2=O)CC1 [Example 14, 6,7-Dichloro-3-(4-methyl-piperazin-1-yl)-1H-quinoxalin-2-one]",Ki,[1]; [4],32 nM
same,% Inh,Mast cells; HR antagonist 1 μM,71%
same,% Inh,Mast cells; HR antagonist 10 μM,80%
3-piperazin-1-yl-6-trifluoromethyl-1H-quinoxalin-2-one; and 3-piperazin-1-yl-7-trifluoromethyl-1H-quinoxalin-2-one [Example 24],Ki,[1]; [4],467 nM
6-Chloro-7-fluoro-3-(4-methyl-piperazin-1-yl)-1H-quinoxalin-2-one; and 7-Chloro-6-fluoro-3-(4-methyl-piperazin-1-yl)-1H-quinoxalin-2-one [Example 25],Ki,[1]; [4],12 nM
same,Ki,"[1]; repeated in the mast cell chemotaxis table, read-out: Binding Assay Ki",12 nM
same,% Inh,Mast cells; HR antagonist 1 μM,81%
same,% Inh,Mast cells; HR antagonist 10 μM,79%
"CN1CCN(c2nc3cc(Cl)ccc3[nH]c2=O)CC1 [Example 9, 6-Chloro-3-(4-methyl-piperazin-1-yl)-1H-quinoxalin-2-one]",Ki,[1]; read-out: Ki,84 nM
"CN1CCN(c2nc3cc(C(F)(F)F)cc(Cl)c3[nH]c2=O)CC1 [Example 23, 8-Chloro-3-(4-methyl-piperazin-1-yl)-6-trifluoromethyl-1H-quinoxalin-2-one]",Ki,[1]; [4],166 nM
"O=c1[nH]c2c([N+](=O)[O-])cccc2nc1N1CCNCC1 [Example 3, 8-Nitro-3-piperazin-1-yl-1H-quinoxalin-2-one]",Ki,[1]; [4],640 nM
3-(4-Methyl-piperazin-1-yl)-6-trifluoromethyl-1H-qui noxalin-2-one; and 3-(4-Methyl-piperazin-1-yl)-7-trifluoromethyl-1H-quinoxalin-2-one [Example 11],Ki,[1]; [4],11 nM
"CN1CCN(c2nc3ccc(F)c(F)c3[nH]c2=O)CC1 [Example 22, 7,8-Difluoro-3-(4-methyl-piperazin-1-yl)-1H-quinoxalin-2-one]",Ki,[1]; [4],30 nM
"CN1CCN(c2nc3cc(F)c(F)cc3[nH]c2=O)CC1 [Example 17, 6,7-Difluoro-3-(4-methyl-piperazin-1-yl)-1H-quinoxalin-2-one]",Ki,[1]; [4],74 nM
CN1CCN(C(=O)c2cc3cc(Cl)ccc3[nH]2)CC1 [(5-chloro-1H-indol-2-yl)-(4-methyl-piperazin-1-yl)-methanone],IC50,"human eosinophils [3]; Homo sapiens, Eosinophil, read-out: IC50, inhibition of histamine-induced eosinophil shape change",270 nM
"CN1CCN(c2nc3ccc(Cl)cc3[nH]c2=O)CC1 [Example 10, 7-Chloro-3-(4-methyl-piperazin-1-yl)-1H-quinoxalin-2-one]",Ki,[1]; read-out: Ki,31 nM
6-Chloro-3-(4-methyl-piperazin-1-yl)-1H-quinoxalin-2-one; and 7-Chloro-3-(4-methyl-piperazin-1-yl)-1H-quinoxalin-2-one [Example 8],Ki,[1]; read-out: Ki,21 nM
"O=c1[nH]c2cc(Cl)c(Cl)cc2nc1N1CCNCC1 [Example 15, 6,7-Dichloro-3-piperazin-1-yl-1H-quinoxalin-2-one]",Ki,[1]; read-out: Ki,56 nM
"Cc1cc2nc(N3CCN(C)CC3)c(=O)[nH]c2cc1Cl [Example 19, 7-Chloro-6-methyl-3-(4-methyl-piperazin-1-yl)-1H-quinoxalin-2-one]",Ki,[1]; [4],93 nM
"CN1CCN(c2nc3cc(C(F)(F)F)ccc3[nH]c2=O)CC1 [Example 12, 3-(4-Methyl-piperazin-1-yl)-6-trifluoromethyl-1H-quinoxalin-2-one]",Ki,[1]; [4],24 nM
same,% Inh,Mast cells; HR antagonist 1 μM,99%
